Test results as given in US20090176887A1, “Biocidal Compositions and Methods” (priority 2006, published 2009).

Key:
Test in all cases: Broth dilution method for determining MIC
Details in all cases: pH adjusted to about 7, blend as ascorbic acid:ADBAC/DDAC
P. aeruginosa = type: cell-based, Pseudomonas aeruginosa
Protocol: (§1) The synergistic activities of different components in a composition (control, conventional comparative, or of the present technology) is determined by the method described by Kull et al. in […], Vol. 9, pages 538-541 (1961), which uses a synergy index to indicates whether synergy exists. A synergy index less than one (<1) indicates synergy; a synergy index of one (1) indicates additivity; a synergy index greater than one (>1) indicates antagonism.
(§2) When applied to Example 1 below, the synergy index of L-ascorbic acid and ADBAC/DDAC can be determined by the following equation:
(§3) Synergy Index=Qa/QA+Qb/QB, […]
(§4) The Minimum Inhibitory Concentration (MIC) of a chemical against a certain bacterium is determined according to the broth dilution method described in National Committee for Clinical Laboratory Standards entitled, “Methods for Dilution Antimicrobial Susceptibility Test for Bacteria that Grow Aerobically” document M7-A2, 2nd ed., 10:8, 1990. […]
(§5) In this example, standard MIC values of ascorbic acid, ADBAC/DDAC, and a 1:1 blend of ascorbic acid and ADBAC/DDAC were determined against E coli, S. aureus, and P. aeruginosa according to the broth dilution method introduced above. […] The synergy index of the 1:1 blend of ascorbic acid and ADBAC/DDAC against each of the biocidal targets was then calculated according to the method as described above.

S. aureus = type: cell-based, Staphylococcus aureus
Protocol: as §1, §2, §3, §4, §5

E coli = type: cell-based, Escherichia coli
Protocol: as §1, §2, §3, §4, §5

MIC (P. aeruginosa): >10,000 ppm, active
MIC (S. aureus): >10,000 ppm, active
MIC (E coli): >10,000 ppm, active
Structure (SMILES): O=C1O[C@H]([C@@H](O)CO)C(O)=C1O [L-Ascorbic Acid]
